{
  "source": "patent US6541195B2",
  "about": "“Correction of genetic defects using chemical chaperones” (The Regents of the University of California, priority 1996, dated 2003)",
  "key": {"[1]": {"target": "conversion of PrP^C to PrP^Sc (Mus musculus, UniProt P04925)", "sequence (P04925 23-230 limits assumed)": "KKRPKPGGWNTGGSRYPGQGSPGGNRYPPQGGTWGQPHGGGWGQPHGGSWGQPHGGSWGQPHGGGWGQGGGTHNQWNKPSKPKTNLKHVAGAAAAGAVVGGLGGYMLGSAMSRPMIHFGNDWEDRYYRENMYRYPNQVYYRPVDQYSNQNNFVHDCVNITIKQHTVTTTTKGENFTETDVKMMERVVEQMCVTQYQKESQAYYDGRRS", "format": "cell-based", "details": "for reduction of the amount of detergent insoluble PrP: 100 mM"}, "[2]": {"test_system": "ScN2a cells"}, "[3]": {"target": "T1, ΔF508 CFTR (Homo sapiens, UniProt P13569, DEL508-508)", "T1 construct": "expressed in transfected cells", "T1 sequence (P13569 with tags, fused parts or gaps DEL508-508)": "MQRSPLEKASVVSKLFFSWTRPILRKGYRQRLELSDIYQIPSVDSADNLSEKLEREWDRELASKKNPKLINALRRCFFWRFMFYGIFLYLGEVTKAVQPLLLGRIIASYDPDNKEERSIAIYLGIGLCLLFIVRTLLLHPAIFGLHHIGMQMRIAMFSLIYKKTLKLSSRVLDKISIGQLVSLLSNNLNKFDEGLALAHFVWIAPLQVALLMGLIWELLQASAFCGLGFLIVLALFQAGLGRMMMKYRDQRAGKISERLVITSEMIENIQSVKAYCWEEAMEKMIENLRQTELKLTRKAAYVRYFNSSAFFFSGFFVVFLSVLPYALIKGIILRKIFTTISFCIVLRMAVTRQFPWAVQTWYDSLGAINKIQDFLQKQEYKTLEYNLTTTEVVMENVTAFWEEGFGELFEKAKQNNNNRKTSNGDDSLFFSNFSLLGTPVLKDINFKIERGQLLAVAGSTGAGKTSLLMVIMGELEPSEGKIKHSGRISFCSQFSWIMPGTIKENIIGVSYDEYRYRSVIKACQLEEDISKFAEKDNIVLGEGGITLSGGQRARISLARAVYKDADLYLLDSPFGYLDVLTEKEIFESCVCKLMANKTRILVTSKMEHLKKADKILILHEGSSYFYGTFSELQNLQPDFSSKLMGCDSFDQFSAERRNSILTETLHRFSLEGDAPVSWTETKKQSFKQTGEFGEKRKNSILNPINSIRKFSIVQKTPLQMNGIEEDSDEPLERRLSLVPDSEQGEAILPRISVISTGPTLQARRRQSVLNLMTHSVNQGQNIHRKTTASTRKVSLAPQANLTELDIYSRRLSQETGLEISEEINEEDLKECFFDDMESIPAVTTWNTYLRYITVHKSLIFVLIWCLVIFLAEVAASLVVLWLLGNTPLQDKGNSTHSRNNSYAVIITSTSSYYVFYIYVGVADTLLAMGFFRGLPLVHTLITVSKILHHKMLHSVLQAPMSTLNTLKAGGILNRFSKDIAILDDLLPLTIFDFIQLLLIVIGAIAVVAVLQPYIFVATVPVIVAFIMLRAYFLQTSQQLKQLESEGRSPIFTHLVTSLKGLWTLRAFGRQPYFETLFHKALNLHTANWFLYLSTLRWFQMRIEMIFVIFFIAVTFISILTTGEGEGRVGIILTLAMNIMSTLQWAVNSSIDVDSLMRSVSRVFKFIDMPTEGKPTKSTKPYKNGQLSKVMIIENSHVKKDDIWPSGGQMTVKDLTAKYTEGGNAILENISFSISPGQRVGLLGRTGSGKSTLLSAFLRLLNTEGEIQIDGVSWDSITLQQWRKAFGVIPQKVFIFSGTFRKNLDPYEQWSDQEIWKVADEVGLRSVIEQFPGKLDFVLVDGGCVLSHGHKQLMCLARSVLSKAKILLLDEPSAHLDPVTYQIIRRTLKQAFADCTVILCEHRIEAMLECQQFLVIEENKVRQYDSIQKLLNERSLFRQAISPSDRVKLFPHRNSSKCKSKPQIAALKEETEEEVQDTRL", "experiment": "Forskolin stimulated chloride transport, SPQ fluorescence assay", "format": "cell-based", "details": "for forskolin dependent chloride efflux: 37° C.", "protocol": "(§1) Forskolin-sensitive chloride transport was measured by the fluorescence assays method (FIG. 3). Briefly, ΔF508-CFTR expressing cells were grown on glass coverslips at 37° C. in the absence or presence of 1.25 M glycerol for 3 days. These cells, along with cells expressing wild type CFTR, then were examined for forskolin stimulated chloride transport using SPQ fluorescence assays, as described in: Verkman, A. S., Am. J. Physiol., 259:C375 (1990); Verkman, A. S. et al., in Methods in Neurosciences, Kraicer, J. et al., Eds. (Academic Press, 1995) vol. 27, 328. Plasma membrane chloride efflux was measured from the time course of increase in SPQ fluorescence in response to replacement of intracellular chloride by nitrate. Cells in the presence or absence of a protein stabilizing agent were incubated with 2 mM SPQ for 12-18 hrs. prior to measurements. The rate of chloride efflux was measured before and after stimulation of cAMP with forskolin. The reaction was quenched by the addition of 150 mM KSCN.\n(§2) The positive effect of glycerol treatment on chloride conductance was concentration and time dependent (FIG. 3B). ΔF508 CFTR-expressing cells growing on glass coverslips were incubated with various concentrations of glycerol for 3 days and then examined for forskolin stimulated chloride transport. Alternatively, cells were incubated with 1.25 M glycerol for varying times (1, 2 or 3 days) and then analyzed for chloride transport following stimulation by forskolin.\nPowdered DMEM medium (Gibco) was reconstituted in 100% distilled water or in 100% […]. Cells transfected with ΔF508 CFTR or mock transfected cells were incubated in either the distilled water or the dH2O containing culture medium for two days at 37° C., and then analyzed for forskolin dependent chloride efflux.\nBoth mock transfected cells and the cells transfected with ΔF508 CFTR were incubated in regular DMEM culture medium containing 100 mM TMAO for two days at 37° C. and then analyzed for forskolin dependent chloride efflux.\nIn contrast, cells treated with 4 different osmolytes now show partial chloride transport (note however that it never reaches the wild type levels, rather only about 10-30% of wild type)."}, "[4]": {"target": "temperature sensitive (ts) mutant p53 protein (Mus musculus, UniProt P02340, A135V)", "sequence (P02340 whole entry A135V)": "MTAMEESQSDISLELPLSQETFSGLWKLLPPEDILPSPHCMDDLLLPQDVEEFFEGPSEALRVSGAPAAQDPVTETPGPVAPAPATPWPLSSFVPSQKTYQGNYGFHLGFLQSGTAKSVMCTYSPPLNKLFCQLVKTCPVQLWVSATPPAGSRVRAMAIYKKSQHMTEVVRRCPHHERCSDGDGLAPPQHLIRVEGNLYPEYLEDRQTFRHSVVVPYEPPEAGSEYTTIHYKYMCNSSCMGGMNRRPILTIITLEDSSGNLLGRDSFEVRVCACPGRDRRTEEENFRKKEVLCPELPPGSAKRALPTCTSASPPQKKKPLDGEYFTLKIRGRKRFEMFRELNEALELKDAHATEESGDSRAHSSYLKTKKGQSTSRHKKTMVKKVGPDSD", "experiment": "Intracellular localization of temperature sensitive p53 in A1-5 cells by indirect immunofluorescence", "details": "39.5° C., after 2 D treatment"}, "[5]": {"test_system": "temperature sensitive form of pp60^src", "format": "cell-based, Rous sarcoma virus", "details": "39.5° C."}, "[6]": {"target": "T1, ΔF508 CFTR", "experiment": "Western blotting of ΔF508 CFTR processing and maturation in transfected NIH 3T3 cells", "format": "cell-based", "protocol": "The effect of glycerol was measured by detecting either (1) the maturation of immature core-glycosylated endoplasmic reticulum forms of the ΔF508 CFTR to mature terminally glycosylated forms, or (2) the presence of forskolin-dependent chloride transport.\nWestern blotting using a commercially available anti-CFTR monoclonal antibody (panel 1A) or our polyclonal anti-CFTR antibody (Panel 1B) was performed using cell lysates from NIH 3T3 cells transfected with either the wild type or ΔF508 forms of CFTR. Andersen, M. P. et al., Science, 253:202 (1991). Both the polyclonal and monoclonal antibodies recognized the 140 kDa (core glycosylated, or B form) and 160 kDa (fully glycosylated, C form) forms of CFTR in lysates from wild type CFTR expressing cells. In contrast, only the 140 kDa core glycosylated CFTR was detected by the two antibodies in the lysates from cells transfected with the ΔF508 CFTR mutant.\nIn panel 1C, cells expressing the ΔF508 mutant were examined by Western blotting using the rabbit polyclonal antibody following their treatment at 37° C. with 1 M glycerol for 3 days. As a positive control, the ΔF508 CFTR expressing cells were incubated at 26° C. for 3 days.\nThe results of experiments to determine the optimal concentration of glycerol and the duration of glycerol treatment needed to elicit the highest levels of mutant ΔF508 CFTR maturation are summarized in FIG. 2. In panel 2A, cells expressing ΔF508 CFTR were incubated at 37° C. for 3 days in culture medium containing various concentrations of glycerol. The cells were harvested and then analyzed by Western blotting using the rabbit polyclonal anti-CFTR antibody. In panel 2B, cells expressing ΔF508 CFTR were incubated with 1.25 M glycerol at 37° C. for 1, 2 or 3 days and then analyzed by Western blotting as described in A. Glycerol concentrations of 1-1.25 M gave the maximal amount of mutant protein which was properly processed.\nIn Panel A of FIG. 22, 3T3 cells expressing the ΔF508 CFTR protein (via stable transfection) were treated with either 100 or 200 mM of the specified cellular osmolytes for 2 days. Cells were then lysed and examined by Western blot analysis. Wt represents cells expressing the wild type CFTR protein. B, G, T, S and M indicated cells treated with betaine, glucose, taurine, sorbitol and myoinositol, respectively.\nIn Panel A, cells expressing ΔF508 CFTR were incubated in the presence or absence of varying concentrations (25, 50, 100 mM) of osmolyte. After 2 days of growth, the cells were harvested and analyzed for their content of immature (band B) and mature (band C) forms of the CFTR protein by Western blotting. Cells expressing wild type CFTR (wt) were included as a positive control. In Panel B, cells expressing ΔF508 CFTR were incubated for 1 (1D), 2(2D) or 3 (3D) days in growth medium containing 150 mM of the indicated osmolyte. As a control, the same cells were incubated in normal growth medium. […] After 3 days of continuous treatment with 150 mM osmolyte there is see a “drop-off” of the amount of the C band."}, "[7]": {"target": "T2, wild type CFTR protein (Homo sapiens, UniProt P13569)", "T2 construct": "expressed in transfected cells; host or cells: NIH 3T3 fibroblasts", "T2 sequence (P13569 whole entry)": "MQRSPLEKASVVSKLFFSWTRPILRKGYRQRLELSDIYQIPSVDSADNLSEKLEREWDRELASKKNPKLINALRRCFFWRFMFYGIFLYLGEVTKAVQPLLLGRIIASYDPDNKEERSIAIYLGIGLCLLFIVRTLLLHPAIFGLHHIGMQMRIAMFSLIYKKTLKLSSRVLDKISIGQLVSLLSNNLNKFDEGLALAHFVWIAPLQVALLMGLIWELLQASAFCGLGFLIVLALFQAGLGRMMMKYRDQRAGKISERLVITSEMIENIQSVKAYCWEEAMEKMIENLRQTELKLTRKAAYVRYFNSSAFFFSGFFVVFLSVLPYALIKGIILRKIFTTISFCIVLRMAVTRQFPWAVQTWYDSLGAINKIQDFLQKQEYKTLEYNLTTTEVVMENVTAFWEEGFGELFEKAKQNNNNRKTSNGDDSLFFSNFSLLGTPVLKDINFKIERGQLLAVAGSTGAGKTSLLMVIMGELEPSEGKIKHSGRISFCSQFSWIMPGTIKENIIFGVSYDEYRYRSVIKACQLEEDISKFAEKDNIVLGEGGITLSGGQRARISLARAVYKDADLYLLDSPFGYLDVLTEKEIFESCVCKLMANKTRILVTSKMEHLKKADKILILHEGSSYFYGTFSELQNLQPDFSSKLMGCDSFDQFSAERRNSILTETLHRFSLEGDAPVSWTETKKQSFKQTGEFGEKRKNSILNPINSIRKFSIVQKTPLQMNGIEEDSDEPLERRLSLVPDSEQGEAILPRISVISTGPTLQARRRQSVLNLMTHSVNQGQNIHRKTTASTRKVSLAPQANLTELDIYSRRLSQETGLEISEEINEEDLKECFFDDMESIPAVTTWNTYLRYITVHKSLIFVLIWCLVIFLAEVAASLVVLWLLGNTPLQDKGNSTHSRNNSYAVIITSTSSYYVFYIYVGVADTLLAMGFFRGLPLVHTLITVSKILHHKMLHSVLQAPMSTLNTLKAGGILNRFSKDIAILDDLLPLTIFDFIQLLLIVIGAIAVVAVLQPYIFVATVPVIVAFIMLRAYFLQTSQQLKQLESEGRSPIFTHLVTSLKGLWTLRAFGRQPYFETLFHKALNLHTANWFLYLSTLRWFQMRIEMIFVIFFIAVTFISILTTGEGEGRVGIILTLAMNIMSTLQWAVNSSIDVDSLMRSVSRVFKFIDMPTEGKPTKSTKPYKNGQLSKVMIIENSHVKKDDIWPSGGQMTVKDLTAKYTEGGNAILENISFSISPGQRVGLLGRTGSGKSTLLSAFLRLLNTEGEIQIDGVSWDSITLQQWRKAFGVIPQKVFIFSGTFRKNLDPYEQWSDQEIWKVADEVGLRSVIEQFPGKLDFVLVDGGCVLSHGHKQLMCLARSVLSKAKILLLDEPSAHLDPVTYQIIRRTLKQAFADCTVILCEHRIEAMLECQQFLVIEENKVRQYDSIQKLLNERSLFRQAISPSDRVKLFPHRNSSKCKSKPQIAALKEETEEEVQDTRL", "experiment": "Glycerol exposure of cells expressing wild type CFTR (Western blotting, chloride conductance)", "format": "cell-based", "details": "data not shown", "protocol": "as §1, with “Cells in the presence or absence of a protein stabilizing agent were incubated with 2 mM SPQ for 12-18 hrs. prior to measurements.” left out, “The reaction was quenched by the addition of 150 mM KSCN.” left out\nas §2"}},
  "note": "Where two headings read alike, the source gives them in different places.",
  "data": [
    {"smiles": "C[S+](C)[O-]", "note": "[DMSO, dimethylsulfoxide]", "values": [
      {"measurement": "reduction of the amount of detergent insoluble PrP", "setting": "[1]; ScN2a cells", "result": "over 50%"},
      {"measurement": "concentration adversely affecting the morphology and growth rates of the cells", "setting": "[2]; mouse", "result": "≥ 200", "unit": "mM"}
    ]},
    {"smiles": "C[N+](C)(C)[O-]", "note": "[TMAO, trimethylamine N-oxide]", "values": [
      {"measurement": "reduction of the amount of detergent insoluble PrP", "setting": "[1]; ScN2a cells", "result": "over 50%"},
      {"measurement": "concentration adversely affecting the morphology and growth rates of the cells", "setting": "[2]", "result": "≥ 200", "unit": "mM"},
      {"measurement": "forskolin dependent chloride efflux", "setting": "[3]; 100 mM TMAO, 2 days", "result": "Forskolin dependent chloride transport was observed"},
      {"measurement": "p53 distribution 2 days following removal of the agent", "setting": "[4]", "result": "all of p53 now was found within the cytoplasm"},
      {"measurement": "restoration of transformed phenotype / wild type pp60^src activity", "setting": "[5]", "result": "much less effective"}
    ]},
    {"smiles": "OCC(O)CO", "note": "[glycerol]", "values": [
      {"measurement": "exogenously added MHM2 PrP in detergent fractions versus untreated ScN2a cells", "setting": "[1]; 1 M glycerol 24 hrs, 40 hrs with MHM2 brain extract, 3F4 antibody", "result": "reduce the levels of the MHM2 protein in both the detergent soluble and insoluble fractions"},
      {"measurement": "glycerol concentrations also giving significant reduction in conversion of PrP^C to PrP^Sc", "setting": "[1]; 3 days", "result": "0.25-0.5 M"},
      {"measurement": "most effective glycerol concentration for reducing detergent insoluble PrP", "setting": "[1]; 3 days, 0-1,000 mM tested", "result": 1, "unit": "M"},
      {"measurement": "overall levels of insoluble PrP versus non-glycerol treated cells", "setting": "[1]; ScN2a cells, glycerol 24 hrs", "result": "marked reduction"},
      {"measurement": "PrP^C synthesis and movement of the newly synthesized protein to the plasma membrane (PIPLC release)", "setting": "[1]; glycerol 24 hrs, PIPLC 5 U/ml 4 hrs", "result": "does not significantly affect"},
      {"measurement": "overall extent of PrP^C to PrP^Sc conversion relative to untreated cells (pulse-chase)", "setting": "[1]; glycerol 3 days, then 5 days without glycerol", "result": "marked reduction"},
      {"measurement": "rate or overall extent of PrP^C synthesis (metabolic labeling)", "setting": "[1]; presence versus absence of glycerol", "result": "no significant differences"},
      {"measurement": "mature ΔF508 CFTR protein by Western blotting", "setting": "[6]; 1 M glycerol, 37° C., 3 days", "result": "significant amounts of the mature ΔF508 CFTR protein"},
      {"measurement": "duration of treatment giving maximal amounts of fully glycosylated ΔF508 CFTR protein", "setting": "[6]; 1.25 M glycerol, 37° C.", "result": 3, "unit": "days"},
      {"measurement": "glycerol concentration giving the maximal amount of properly processed mutant protein", "setting": "[6]; 37° C., 3 days", "result": "1 to 1.25", "unit": "M"},
      {"measurement": "effect of higher doses on fully glycosylated ΔF508 CFTR", "setting": "[6]; doses higher than 1-1.25 M, 3 days", "result": "inhibitory"},
      {"measurement": "forskolin stimulated chloride transport", "setting": "[3]; 1.25 M glycerol, one day", "result": "forskolin stimulated chloride transport was observed"},
      {"measurement": "concentration giving maximal rates of chloride efflux", "setting": "[3]; 3 days", "result": 1.25, "unit": "M"},
      {"measurement": "lowest concentration with increased chloride transport", "setting": "[3]; 3 days", "result": 0.5, "unit": "M"},
      {"measurement": "p53 distribution one day following removal of the agent", "setting": "[4]", "result": "no longer displayed a nuclear p53 distribution"},
      {"measurement": "effect on amount of mature wild type CFTR protein or forskolin dependent chloride conductance", "setting": "[7]", "result": "little or no effect"}
    ]},
    {"smiles": "[2H]O[2H]", "note": "[deuterated water]", "values": [
      {"measurement": "CFTR processing in ΔF508 CFTR-expressing cells", "setting": "[6]; deuterated water", "result": "competent to induce CFTR processing"},
      {"measurement": "forskolin dependent chloride efflux", "setting": "[3]; medium in 100% dH2O, two days", "result": "exhibited forskolin-dependent chloride transport"},
      {"measurement": "p53 distribution 2 days following removal of the agent", "setting": "[4]", "result": "all of p53 now was found within the cytoplasm"},
      {"measurement": "restoration of transformed phenotype / wild type pp60^src activity", "setting": "[5]", "result": "much less effective"}
    ]}
  ]
}
